Data taken from patent publication US20080139545A1, “FORMULATION TO TREAT EAR INFECTION” (priority 2006, published 2008).
“Also recorded” adds a separate entry of the source. Where two headings read alike, the source gives them in different places.

How the values were obtained:
[1] = conventional treatments of the same patients before NAC (case histories); assay type: in vivo, human; details: for response of effusion, tube plugging and otorrhea to conventional treatment: patient one (Example 4), 2002-2005, topical or oral
[2] = as above; assay type: in vivo, human
Description: They developed vertigo and bilateral otalgia in 1997, and presented to our practice. Given their prior history, they underwent an extensive workup from the outset. […] They underwent right-sided T tube placement for chronic Eustachian tube dysfunction in October 1997, with marked improvement of their pressure and fullness. However, they developed intermittent otorrhea, for which they received topical Tobradex. In November, the tube plugged completely, and they underwent tube replacement. Findings were notable for thick mucus filling the middle ear space. […] They underwent a right sided mastoidectomy with tube exchange in December 1997, with intraoperative findings notable for an inflamed mastoid cavity with several areas of cholesterol granuloma, as well as complete aditus blockade.
They continued to have thick, “taupe”-colored otorrhea after surgery. Considering their failure to respond to therapy, the differential was widened. Their evaluations for immunodeficiency and autoimmune pathology were negative. They underwent multiple TT placements and exchanges, as well as a negative culture and a wide laser tympanotomy in June 1998. The tympanotomy afforded them a brief hiatus from drainage from July through August. […] They also required office debridements every week or alternate week until they underwent a revision tympanomastoidectomy in October 1998. Intraoperative findings were notable for a clear mastoid, but a middle ear full of thick mucopurulence and edematous mucosa. The KTP laser was used to widen the tympanotomy and to ablate the middle ear mucosa to the Eustachian tube. Intraoperative cultures returned negative. Their course improved considerably, with only mild intermittent infections through July 1999. However, they were then diagnosed with breast cancer, which was treated with a modified radical mastectomy and adjuvant chemoradiation.
As they were completing their chemotherapy, they redeveloped the same otorrhea, which was treated with continuous, suppressive Floxin drops as well as frequent office debridements. They developed a mastoid abscess in March 2000, for which they underwent a repeat revision mastoidectomy. Preoperative CT imaging raised the concern for osteomyelitis. Intraoperative findings were notable for purulence in the mastoid and subcutaneous tissues, which were debrided widely. Intraoperative cultures returned penicillin-resistant, but otherwise pan-sensitive Staphylococcus aureus. Their otorrhea resumed in April after a brief hiatus. […] They continued to require office debridements on alternate weeks.
They had brief episodes of otorrhea in November 2001, and February and May 2002, which were treated easily with ototopicals.
Their otorrhea restarted in February 2003. They were begun on alternating courses of topical ciprofloxacin and Tobradex, oral azithromycin and metronidazole, as well as office debridements every week or alternating week. […] An infectious disease consultation was obtained, and they were started on high dose Septra per recommendations. […] A followup culture in October was negative.
Given their continued otorrhea, they underwent a revision modified radical tympanomastoidectomy in November 2004, with intraoperative findings notable for a large cholesterol granuloma extending from the mastoid tip to the retrosigmoid region towards the occiput. They had frank purulence in the epi-, pro-, and hypotympanum. The middle ear was packed with Zyvox-soaked Gelfoam. […] After a brief respite, their otorrhea restarted the following month. […] Multiple cultures returned negative except for occasional colonies of Candida albicans.
patient four is a diabetic with a history of frequent ear infections as a child. They developed ear plugging in May 2004, and was treated with oral antibiotics for otitis media. […] However, they developed chronic otorrhea after tube placement, which persisted despite multiple courses of oral and topical antibiotics. The TT was removed in September, after which they developed a chronic serous effusion. […]

[3] = off-label treatment of patients with Ciprodex augmented with 2% NAC (case reports); assay type: in vivo, human; details: patient two (Example 1), oral, for presumed fungal superinfection
Description: These patients responded uniformly to the compositions of the present invention. All treated ears ceased to drain within 1-2 weeks of adequate treatment. No ototoxicity was documented by either patient report or audiometry.
Given their multiple treatment failures, they were started at this point on Ciprodex augmented with 2% NAC. Verbal informed consent was obtained prior to starting treatment, and they were continued on oral Zyvox. […] They were given a fresh mixture of NAC with Ciprodex, and their otorrhea and middle ear fluid resolved one week later. […] They have been refrigerating the medication between uses, and hand warming the solution before application.
In November 2005, SG underwent a two week course of topical Ciprodex augmented with 2% NAC. Verbal informed consent was obtained prior to starting treatment.
At this point, BT was started on a two week course of topical Ciprodex augmented with 2% NAC. Verbal informed consent was obtained prior to starting treatment.
In November 2005, DL was started on a two week course of topical Ciprodex augmented with 2% NAC. Verbal informed consent was obtained prior to starting treatment. […] The same solution was insufflated into the ear after an aggressive debridement, and they were started on another two week course. The patient traveled abroad for one month, and returned in January 2006. […]

[4] = high first pass metabolism through the liver; cited from earlier work
[5] = NAC at a concentration of 0.1%; cited from earlier work
Pseudomonas cultures = details: cited from earlier work
[6] = system: Staphylococcus epidermidis; details: concentrations of 0.003% to 0.8%; cited from earlier work
Streptococcus pneumoniae = details: concentrations of 0.003% to 0.8%; cited from earlier work
Bacillus species = details: concentrations of 0.003% to 0.8%; cited from earlier work
Moraxella catarrhalis = details: concentrations of 0.003% to 0.8%; cited from earlier work
Klebsiella pneumoniae = details: concentrations of 0.003% to 0.8%; cited from earlier work
Escherichia coli = details: concentrations of 0.003% to 0.8%; cited from earlier work
Haemophilus influenzae = details: concentrations of 0.003% to 0.8%; cited from earlier work
polymicrobial cultures = details: concentrations of 0.003% to 0.8%; cited from earlier work
[7] = topical NAC, rat model of otitis media; cited from earlier work
[8] = topical NAC, rabbit model of otitis media; cited from earlier work
[9] = applied topically to children at a concentration of 2%; cited from earlier work
[10] = administered via transtympanic iontopheresis; cited from earlier work
[11] = system: cochlear outer hair cell (OHC); details: co-administration with NAC at 0.017%; cited from earlier work
[12] = system: cochlear outer hair cell (OHC); details: multiple studies; cited from earlier work
[13] = patient two (Example 1), 1997-2005, topical or oral as stated

For `CN[C@@H](C)[C@@H](O)c1ccccc1` [Sudafed], the “response of effusion, tube plugging and otorrhea to conventional treatment” value (from here on “response of effusion”) [1] was “effusion and plugging continued”.
For `CC1COc2c(N3CCN(C)CC3)c(F)cc3c(=O)c(C(=O)O)cn1c23` (racemic) [Floxin, (±)-9-fluoro-2,3-dihydro-3-methyl-10-(4-methyl-1-piperazinyl)-7-oxo-7H-pyrido[1,3,3-de]-1,4-benzoxazine-6-carboxylic acid], the “response of effusion” value [1] was “continued essentially unchanged”.
In the case of `CC[C@H]1OC(=O)[C@H](C)[C@@H](O[C@H]2C[C@@](C)(OC)[C@@H](O)[C@H](C)O2)[C@H](C)[C@@H](O[C@@H]2O[C@H](C)C[C@H](N(C)C)[C@H]2O)[C@](C)(O)C[C@@H](C)CN(C)[C@H](C)[C@@H](O)[C@]1(C)O` [azithromycin], the “response of otorrhea to conventional treatment” value [2, 13] is reported as “symptoms continued essentially unabated” and the “response of effusion” value [1] is reported as “effusion and plugging continued; also recorded: continued essentially unchanged”.
With `CC[C@H]1OC(=O)[C@H](C)[C@@H](O[C@H]2C[C@@](C)(OC)[C@@H](O)[C@H](C)O2)[C@H](C)[C@@H](O[C@@H]2O[C@H](C)C[C@H](N(C)C)[C@H]2O)[C@](C)(OC)C[C@@H](C)C(=O)[C@H](C)[C@@H](O)[C@]1(C)O` [Biaxin, 6-O-methylerythromycin] the “response of otorrhea to conventional treatment” value [2, 13] was “failed to respond”.
With `CN(C/C=C/C#CC(C)(C)C)Cc1cccc2ccccc12.Cl` [Lamisil, (E)-N-(6,6-dimethyl-2-hepten-4-ynyl)-N-methyl-1-naphthalenemethanamine hydrochloride] the tolerability [3] was “could tolerate only three days of treatment secondary to gastrointestinal side effects”.
For `CC(=O)N[C@@H](CS)C(=O)O` [NAC, N-acetylcysteine], the oral bioavailability [4] is given as 5-10%, the viscosity reductions [5] is given as 21-39% and the “killing of Pseudomonas cultures” value (Pseudomonas cultures; NAC administered alone, concentration of only 0.002%) is given as 95%. The “decrease of the efficacy of aminoglycoside antibiotics” value (Pseudomonas cultures; combination with aminoglycoside antibiotics) was 2-16 fold, the “interaction with ticarcillin and carbenicillin” value (Pseudomonas cultures; combination with ticarcillin and carbenicillin) was “strong synergy” and the “adherence of Staphylococcus epidermidis to polystyrene” value [6] was “reduces the adherence”. For the same compound, the “adherence of Streptococcus pneumoniae to human oropharyngeal cells” value (Streptococcus pneumoniae) was “reduces the adherence”, the “adherence of Bacillus species to stainless steel” value (Bacillus species) was “reduces the adherence” and the “adherence of Moraxella catarrhalis to human pharyngeal cells” value (Moraxella catarrhalis) was “reduces the adherence”. For the same compound, the “adherence of Klebsiella pneumoniae to polystyrene” value (Klebsiella pneumoniae) was “reduces the adherence”, the “adherence of Escherichia coli to polystyrene” value (Escherichia coli) was “reduces the adherence” and the “adherence of Haemophilus influenzae to mucus and human oropharyngeal cells” value (Haemophilus influenzae) was “reduces the adherence”. For the same compound, the “adherence of polymicrobial cultures to stainless steel and tracheoesophageal puncture prostheses” value (polymicrobial cultures) was “reduces the adherence”, the “fibroblast proliferation, collagen synthesis, and inflammatory markers” value [7] was “Marked reductions” and the tympanic membrane scarring [7] was “effectively reduced this scarring”. For the same compound, the “fibroblast proliferation, collagen synthesis, and inflammatory markers” value [8] was “Marked reductions”, the tympanic membrane scarring [8] was “effectively reduced this scarring” and the “TT reinsertion, recurrence of otitis media, need for physician visits” value [9] was “decreases”. For the same compound, the “tympanostomy tube (TT) longevity” value [9] was “increases”, the “clearance of thick middle ear effusions” value [10] was “may speed the clearance” and the “hydrogen peroxide-mediated damage to OHCs” value [11] was “completely prevented”. The “protection against oxidative OHC damage from cisplatin or aminoglycosides” value [12] was “protect against oxidative OHC damage”.
With `O=C(O)c1cn(C2CC2)c2cc(N3CCNCC3)c(F)cc2c1=O` [ciprofloxacin drops, 1-cyclopropyl-6-fluoro-1,4-dihydro-4-oxo-7-(1-piperazinyl)-3-quinolinecarboxylic acid] the “response of otorrhea to conventional treatment” value [2, 13] was “continued to drain through December; also recorded: failed to respond; also recorded: otorrhea resolved”, the “response of otorrhea to conventional treatment” value ([2]; patient two (Example 1), 1997-2005, topical or oral as stated, listed as ciprofloxacin) was “symptoms continued essentially unabated” and the “response of effusion” value [1] was “effusion and plugging continued; also recorded: tube plugging and otorrhea continued”. The “response of otorrhea/effusion to conventional treatment” value ([1]; patient three (Example 3), 2005, topical or oral as stated) was “developed recurrent otorrhea on the right side”.
With `Cc1ncc([N+](=O)[O-])n1CCO` [Flagyl, 2-Methyl-5-nitro-imidazole-1-ethanol] the “response of otorrhea to conventional treatment” value ([2]; patient four (Example 2), 2004-2005, topical or oral as stated) was “otorrhea persisted” and the “response of otorrhea to conventional treatment” value [2, 13] was “symptoms continued essentially unabated”.
In the case of `CN[C@H](CC(C)C)C(=O)N[C@H]1C(=O)N[C@@H](CC(N)=O)C(=O)N[C@H]2C(=O)N[C@H]3C(=O)N[C@H](C(=O)N[C@H](C(=O)O)c4cc(O)cc(O)c4-c4cc3ccc4O)[C@H](O)c3ccc(c(Cl)c3)Oc3cc2cc(c3O[C@@H]2O[C@H](CO)[C@@H](O)[C@H](O)[C@H]2O[C@H]2C[C@](C)(N)[C@H](O)[C@H](C)O2)Oc2ccc(cc2Cl)[C@H]1O` [vancomycin], the “response of otorrhea to conventional treatment” value [2, 13] is reported as “some improvement”.
In the case of `O=C(N[C@H](CO)[C@H](O)c1ccc([N+](=O)[O-])cc1)C(Cl)Cl` [chloramphenicol], the “response of otorrhea to conventional treatment” value [2, 13] is reported as “failed to respond”.
